Broadly, the IC50 is the concentration that inhibits the measured activity by half.

The results in this text go back to patent US9969744B2, “Compounds for use in cognition improvement” (FUNDACIÓN PARA LA INVESTIGACIÓN MÉDICA APLICADA, priority 2014, dated 2018).

Marks after values point to notes of the source that are not given here.

For one data set, the target named is T1, PDE5A1 (Homo sapiens, UniProt O76074).
T1 construct: they are full-length with N-terminal GST tag; GST (N); purchased BPS Biosciences 60050; host or cells: baculovirus infected Sf9 cells
As to the kind of experiment: PDE enzyme activity assay (HTRF cGMP), PDE5A. The class given is biochemical. The conditions noted are these: recombinant enzyme; read-out: PDE5A1 inhibition (IC50). A general note: In TR-FRET formats the signal depends on donor and acceptor labels being close together.

A further data set deals with AcH3. As to the kind of experiment: In-vivo AcH3 in hippocampus of wild type mice. The conditions noted are these: 1 h after single dose 40 mg/kg i.p. How it is done: Another group of animals received the vehicle (1/1/8, v:v:v, DMSO/Tween 20/saline). One hour later, mice were sacrificed by cervical dislocation and their hippocampus was quickly dissected from the brains. Total tissue homogenates were obtained by homogenizing the hippocampus in a cold lysis buffer with protease inhibitors (0.2 M NaCl, 0.1 M HEPES, 10% glycerol, 200 mM NaF, 2 mM Na4P2O7, 5 mM EDTA, 1 mM EGTA, 2 mM DTT, 0.5 mM PMSF, 1 mM Na3VO4 and Complete Protease Inhibitor Cocktail, Roche Diagnostics). The homogenate was then centrifuged at 14,000×g at 4° C. for 20 min and the supernatant aliquoted and stored at −80° C. Total protein concentrations were determined using the BioRad Bradford protein assay (BioRad Laboratories). Protein samples were analyzed as described in the “in vitro” section.

The nature of data set [1]: Pharmacokinetics: plasma and brain concentration in wild type mice. The class given is in vivo. The conditions noted are these: 1 hour after 40 mg/Kg i.p. As for the experimental part:
Plasma and brain samples for measuring compounds concentrations were collected at predetermined times from four wild type mice per point. Three time points were measured: 0.25, 0.5 and 1.0 hour. Compounds concentration was measured using a Xevo-TQ MS triple quadropole mass spectrometer with an electrospray ionization (ESI) source and an Acquity UPLC (Waters, Manchester, UK).
Compounds solutions were prepared by dissolving the samples in DMSO and this solution was made up to a final volume by addition of a mixture of Tween 20 and 0.9% NaCl (1/1/8, v:v:v, DMSO/Tween 20/saline). Compounds were injected as a single intraperitoneal injection. Animals were killed by decapitation.
Plasma. Blood was collected into tubes containing EDTA and plasma was collected via centrifugation (4° C., 13200 rpm, 5 min) and stored at −80° C. until analysis.
Brain. Brains were collected immediately after mice death. The brains were excised, weighed and frozen at −80° C. until further process for analysis.
Chromatographic separation was performed by gradient elution at 0.4 mL/min using an Acquity UPLC BEH C18 column (100×2.1 mm, 1.7 μm particle size; Waters). The mobile phase consisted of A: water with 0.1% formic acid, B: methanol with 0.1% formic acid. After 1.5 min at the initial condition of 95% A, solvent B was increased from 5% to 100% over 2 min, maintained at 100% for 1.5 min, then a linear gradient to initial conditions was applied for 0.1 min and maintained for 3.4 minutes to re-equilibrate the column, giving a cycle time of 8.5 min. The autosampler temperature was set at 10° C. and column temperature at 45° C.
Compounds were monitored using a triple quadrupole mass spectrometer equipped with an electrospray ionization interface. For detection and quantification, a capillary voltage of 3.5 kV and a cone voltage of 38 V were used. Source and desolvation temperatures were 150° C. and 650° C., respectively. Ultra-high purity nitrogen was used for cone gas (75 L h^−1) and desolvation gas (1000 L h^−1). The electrospray ionization operated in the positive mode, and the collision gas used was ultra-pure argon at a flow rate of 0.15 mL min^−1.
Quantification was achieved by external calibration using matrix-matched standards. Concentrations were calculated using a weighted least-squares linear regression (W=1/x). Calibration standards were prepared by adding the appropriate volume of diluted solutions of the compound (made in a mixture of methanol and water, 50:50, v:v) to aliquots of 50 uL of blank plasma or to 75 mg of homogenized blank brain. 2% formic acid in acetonitrile was added to precipitate the proteins. The mixture was then agitated for 10 min and centrifuged at 13200 rpm for 5 min at 4° C. […]

The test system of another data set is aged-Tg2576 mice. As to the kind of experiment: Memory function in aged-Tg2576 mice: Morris water maze (MWM). The conditions noted are these: Tg2576 mice (16-18 month), chronic treatment 3-5 weeks, 20 mg/Kg i.p.; retention phase, day 4th; standard error in brackets. The data set is classed as in vivo. The source says:
The effect on memory function of compounds of the invention was studied in Tg2576 mice (16-18 month) after a chronic treatment of 3-5 weeks by using two different behavioral tasks: the Fear Conditioning (FC) and the Morris water maze (MWM) test, Table 5 (below)
The MWM test was used to evaluate spatial memory. After treatments, groups of animals underwent spatial reference learning and memory testing in the MWM. The water maze was a circular pool (diameter 1.2 m) filled with water maintained at 20° C. and made opaque by the addition of non-toxic white paint. Mice were trained for three consecutive days (8 trials/day) swimming to a raised platform (visible-platform). No distal visible cues were present during this phase. […] In the probe trials the platform was removed from the pool, and the percentage of time spent in the quadrant where the platform was previously set was recorded. All trials were monitored by a camera above the center of the pool connected to a SMART-LD program (Panlab S.L., Barcelona, Spain) for subsequent analysis of escape latencies, swimming speed, path length and percent time spent in each quadrant of the pool during probe trials. […]

Turning to `CCCc1nn(C)c2c(=O)[nH]c(-c3cc(Cc4ccc(C(=O)Nc5ccccc5N)cc4)ccc3OCC)nc12` [Example 1-11, N-(2-aminophenyl)-4-[[4-ethoxy-3-(1-methyl-7-oxo-3-propyl-6H-pyrazolo[4,3-d]pyrimidin-5-yl)phenyl]methyl]benzamide], at PDE5A1, the IC50 was 10 to 1000 nM. For the same molecule, the “AcH3 increment vs basal” value in the data set with AcH3 is listed as “++ (basal x1≤(++)<basal x2)”. In addition, the “Crosses BBB?” value in data set [1] was “Yes”. Moreover, in data set [1] (standard deviation in brackets), the “C (brain)” value is 1903.4 (565.8)^a nmol/Kg and the “C (plasma)” value was 12132.5 (1762.9)^a nM. In data set [1] (mouse, brain/plasma, intraperitoneal, read-out: Brain/Plasma ratio), the Kp at 1 h amounted to 0.157. Besides, the “MWM (% of time on right quadrant)” value in the data set on aged-Tg2576 mice is 33.83 (2.24)^c %.
